# Measurements reported in patent US7960168B2, “Biologically active substance transfer sheet, cell culture kit constituted of cell culture plate and biologically active substance transfer sheet, producing method thereof and method for screening cell culture conditions utilizing the same” (Canon Kabushiki Kaisha, priority 2003, dated 2011).
# Assays:
# Assay type in all cases: cell-based
# [1] = system: nerve cell strain PC12; experiment: PC12 culture with immobilized EGF and dissolved EGF/NGF, hematoxilin-eosin staining (Example 6); settings: PC12, 48 hours
# Description: An epidermal cell growth factor (EGF) and a nerve cell growth factor (NGF) were employed as the biologically active substances. A culture plate of polystyrene 96-well cell culture plate was prepared by a process similar to that in Example 5, providing areas (wells) where EGF was immobilized with stepwise concentrations, and control areas (wells) of no immobilization. Separately, a stretchable polyolefin sheet was coated with hydroxypropyl cellulose by using a bar coater and heated for 10 minutes at 60° C. to form a holding layer. Then EGF and NGF were provided on the sheet by using a Canon ink jet printer PIXUS950i to obtain a transfer sheet on which areas carrying EGF and NGF singly or in combination. Screening was conducted with these cell culture plate and transfer sheet.
# The transfer sheet was placed on the cell culture plate sterilized in advance with a sterilizing lamp and filled with a culture liquid, then the areas carrying biological substance(s) of the sheet were brought into contact with the culture liquid in the wells by pushing the opposite surface of the sheet with a pointed article, and the contact was maintained for 15 minutes under light shaking to dissolve the biologically active substance in the culture liquid. […]
# [2] = system: mouse skeletal muscle cell strain C2C12; experiment: C2C12 culture with transfer sheet carrying b-FGF, IGF-I and BMP-2, microscope observation (Example 1); settings: C2C12, 96 hours culture
# Description: Basic fibroblast cell growth factor (b-FGF), insulin-like growth factor (IGF-I) and bone morphogenetic protein (BMP-2) were used as the biologically active substance. b-FGF was dissolved in a physiological saline solution, IGF-I in 10 mM acetic acid, and BMP-2 in 4 mM hydrochloric acid to prepare solutions each containing the biologically active substance at a concentration of 20 μg/ml and 5% glycerin. Ink cartridges were washed with 70% ethanol, to which the respective solutions prepared above were filled.
# Then, on a base of a polyolefin sheet (NOVIX-II® manufactured by Asahi Techno Glass), sterilized in advance with a sterilizing lamp, the biologically active substances were discharged by using an ink jet printer (Ink jet printer F930, Canon). […]
# The cells after the culture were treated with 10% formalin for 15 minutes and then with methanol for 15 minutes, and finally with a 1000-fold dilution of fluorescent dye (TOTO-3 manufactured by Molecular Probe) for 30 minutes for fluorescent staining of DNA. […] Also the cells were subjected to freeze-fracture and the creatinkinase (KP) and alkaliphosphatase (ALP) activities were measured.
# [3] = system: mouse skeletal muscle cell strain C2C12; experiment: C2C12 culture with sequential transfer sheets A and B, CK and ALP activities (Example 2); settings: C2C12, areas containing IGF-I only
# Description: As the biologically active substances, fibroblast cell growth factor-2 (FGF-2), insulin-like growth factor-I (IGF-I), bone morphogenetic protein-2 (BMP-2) and transforming growth factor-β (TGF-β) were employed.
# A DMEM culture liquid containing 2% FBS was put into wells of two 96-well transparent microplates 1 and 2. […] In this manner, the sheet A was used to provide FGF-2 and IGF-I to the microplate 1, and the sheet B was used to provide BMP-2 and TGF-β to the microplate 2. Then, in each well of each microplate, cells of mouse skeletal muscle cell strain C2C12 were cultured for 48 hours in humidified air supplied with 5% CO2. 48 hours after the start of the culture, the culture liquid was removed from each cell by suction. After fresh 2% FBS/DMEM was added to each well, a transfer sheet B was applied to the microplate 1 to supply BMP-2 and TGF-β, while a transfer sheet B was applied to the microplate 2 to supply FGF-2 and IGF-I, and the cell culture was conducted for further 48 hours.
# [4] = system: mouse skeletal muscle cell strain C2C12; experiment: C2C12 culture on plate with immobilized b-FGF and IGF-I and BMP-2 transfer sheet, optical microscope (Example 5); settings: C2C12, 96 hours
# Description: The following method was employed for acting biologically active substances in combination on cells. As the biologically active substances, there were employed basic fibroblast cell growth factor (b-FGF), insulin-like growth factor (IGF-I) and bone morphogenetic protein (BMP-2).
# First, bFGF and IGF-I were immobilized onto a polystyrene 96-well cell culture plate in the following manner.
# On the cell culture plate coated with poly-L-lysine, a solution (1.5 mg/ml) of active dextran activated with tresyl chloride was added to bind the activated dextran to the plate. Then carbonate buffer solutions containing b-FGF and IGF-I respectively were prepared, applied to the microplate with various amounts. The microplate was left to stand for 12 hours at 4° C. to prepare a cell culture plate including areas where b-FGF and IGF-I were immobilized either singly or in combination with different concentrations, as well as control areas without immobilization.
# A polystyrene sheet having projections corresponding the wells of the microplate was provided and sterilized. […]
# Then the cells were treated with 10% formalin for 15 minutes and then with methanol for 15 minutes, and reacted with a fluorescent dye for 30 minutes for fluorescent staining of DNA. […] Thus the complex effects of three factors, namely immobilized bFGF, soluble IGF-I and BMP-2, to the cells were analyzed.
# [5] = system: mouse skeletal muscle cell strain C2C12; experiment: C2C12 culture with BMP-2, sustained-release IGF-I and timed FGF-2 addition, ALP staining (Example 3)
# Description: On the other hand, the 20 μg/ml solution of the insulin-like growth factor (IGF-I) contained 5% glycerin and 3% styrene-acrylic resin monoethanolamine salt (average molecular weight 8,000, acid value 250) for controlled release of IGF. Ink cartridges were washed with 70% ethanol, and were filled with the respective solutions of the biologically active substances.
# Each polyolefin sheet was processed in advance to have minute holes at positions corresponding to the wells of a 96 well plate to allow gas exchange. A DMEM culture liquid containing FBS by 2% was put in wells of five 96-well transparent microplates. […] Then, in each well, cells of a mouse skeletal muscle cell strain C2C12 were added. Next, a transfer sheet carrying IGF-I was superimposed on each of the microplate and pressed from the above using the above jig so that each region of the sheet came in contact with the culture liquid in each well to gradually release IGF-I into the culture liquid, and cell culture was started. The above operations were carried out in the same manner with the five microplates. After a predetermined time from the start of the culture, the transfer sheet of one of the microplates was replaced by a transfer sheet carrying FGF-2 to dissolve FGF-2 into the culture liquid. After that the transfer sheet was replaced by the previous IGF-I sheet and the culture was continued. All the cells were cultured for 114 hours in total at 37° C., in humidified air containing 5% CO2. The FGF-2 addition was conducted at the following points:
# (1) immediately after the start of culture;
# (2) 12 hours after the start of culture;
# (3) 24 hours after the start of culture;
# (4) 48 hours after the start of culture;
# (5) 72 hours after the start of culture.
substance,measurement,setting,value
"EGF: epidermal cell growth factor, immobilized on the plate or dissolved from the sheet","effect on proliferation and differentiation (nuclei and cell morphology), immobilized state versus dissolved state",[1],affected the PC12 cells differently
IGF-I: insulin-like growth factor used as biologically active substance,differentiation into muscle cells (microscope observation),[2]; areas containing IGF-I,accelerated depending on the concentrations
same,muscle differentiation (CK relative activity),[3],accelerated
same,muscle differentiation (optical microscope),[4]; areas containing IGF-I,muscle differentiation
"b-FGF: Basic fibroblast cell growth factor, a cell growth factor used as biologically active substance",cell proliferation (microscope observation),[2]; areas containing b-FGF,accelerated depending on the concentrations
same,ALP staining (index for bone differentiation by BMP-2),[5]; FGF-2 added (1) immediately after the start of culture,stained portions were scarcely observed
same,ALP staining (index for bone differentiation by BMP-2),[5]; FGF-2 added (2) 12 hours after the start of culture,stained portions were scarcely observed
same,ALP staining (index for bone differentiation by BMP-2),[5]; FGF-2 added (3) 24 hours after the start of culture,portions stained with ALP were confirmed
same,ALP staining (index for bone differentiation by BMP-2),[5]; FGF-2 added (4) 48 hours after the start of culture,portions stained with ALP were confirmed
same,ALP staining (index for bone differentiation by BMP-2),[5]; FGF-2 added (5) 72 hours after the start of culture,portions stained with ALP were confirmed
same,bone differentiation from muscle cells into bone cells,[5]; adding FGF-2 within 24 hours after the start of the culture,significantly suppressed
same,cell proliferation (optical microscope),[4]; areas containing immobilized b-FGF,cell proliferation
